{"source": "PubChem BioAssay AID2060622", "about": "(Molecular Pharmacology Branch, DTP, NCI, 2025);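 note: spheroids exposed to compounds for 7 days before readout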;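 for viability, T/C: 100% = DMSO vehicle control wells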", "system": "242566-281-R-J2-PDC complex spheroid viability", "test": "Anticancer human tumor 242566-281-R-J2-PDC patient-derived pancreatic carcinoma cell line growth inhibition [CLK]", "conditions": "for IC50: curve of first compound; for viability, T/C: stronger effect = lower value", "in_short": "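Multi-cell-type spheroids combined patient-derived tumor cells with HUVEC endothelial cells and human mesenchymal stem cells. Paired agents were dosed in half-log steps down from about clinical Cmax, or from 10 microM where Cmax was unknown.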", "key": {"[1]": {"conditions": "second compound 0.0316 µM, first compound 0.0316 µM"}, "[2]": {"conditions": "second compound 0.0316 µM, first compound 0.1 µM"}, "[3]": {"conditions": "second compound 0.0316 µM, first compound 0.316 µM"}, "[4]": {"conditions": "second compound 0.0316 µM, first compound 1 µM"}, "[5]": {"conditions": "second compound 0.0316 µM, first compound 3.16 µM"}, "[6]": {"conditions": "second compound 0.0316 µM, first compound 10 µM"}, "[7]": {"conditions": "second compound 0.1 µM, first compound 0.0316 µM"}, "[8]": {"conditions": "second compound 0.1 µM, first compound 0.1 µM"}, "[9]": {"conditions": "second compound 0.1 µM, first compound 0.316 µM"}, "[10]": {"conditions": "second compound 0.1 µM, first compound 1 µM"}, "[11]": {"conditions": "second compound 0.1 µM, first compound 3.16 µM"}, "[12]": {"conditions": "second compound 0.1 µM, first compound 10 µM"}, "[13]": {"conditions": "second compound 0.316 µM, first compound 0.0316 µM"}, "[14]": {"conditions": "second compound 0.316 µM, first compound 0.1 µM"}, "[15]": {"conditions": "second compound 0.316 µM, first compound 0.316 µM"}, "[16]": {"conditions": "second compound 0.316 µM, first compound 1 µM"}, "[17]": {"conditions": "second compound 0.316 µM, first compound 3.16 µM"}, "[18]": {"conditions": "second compound 0.316 µM, first compound 10 µM"}, "[19]": {"conditions": "second compound 1 µM, first compound 0.0316 µM"}, "[20]": {"conditions": "second compound 1 µM, first compound 0.1 µM"}, "[21]": {"conditions": "second compound 1 µM, first compound 0.316 µM"}, "[22]": {"conditions": "second compound 1 µM, first compound 1 µM"}, "[23]": {"conditions": "second compound 1 µM, first compound 3.16 µM"}, "[24]": {"conditions": "second compound 1 µM, first compound 10 µM"}, "[25]": {"conditions": "second compound 3.16 µM, first compound 0.0316 µM"}, "[26]": {"conditions": "second compound 3.16 µM, first compound 0.1 µM"}, "[27]": {"conditions": "second compound 3.16 µM, first compound 0.316 µM"}, "[28]": {"conditions": "second compound 3.16 µM, first compound 1 µM"}, "[29]": {"conditions": "second compound 3.16 µM, first compound 3.16 µM"}, "[30]": {"conditions": "second compound 3.16 µM, first compound 10 µM"}, "[31]": {"conditions": "second compound 10 µM, first compound 0.0316 µM"}, "[32]": {"conditions": "second compound 10 µM, first compound 0.1 µM"}, "[33]": {"conditions": "second compound 10 µM, first compound 0.316 µM"}, "[34]": {"conditions": "second compound 10 µM, first compound 1 µM"}, "[35]": {"conditions": "second compound 10 µM, first compound 3.16 µM"}, "[36]": {"conditions": "second compound 10 µM, first compound 10 µM"}}}
{"smiles": "C#Cc1c(F)ccc2cc(O)cc(-c3ncc4c(N5CC6CCC(C5)N6)nc(OCC56CCCN5CC(F)C6)nc4c3F)c12", "note": "(centres undefined) + CNC(=O)c1ccc(Nc2nc(OC3CCCC3)c3c(-c4ccc5nc(C)oc5c4)c[nH]c3n2)c(OC)c1", "values": [{"measurement": "IC50", "setting": "second compound 0.0316 µM", "result": 4.27, "unit": "µM"}, {"measurement": "IC50", "setting": "second compound 0.1 µM", "result": 1.43, "unit": "µM"}, {"measurement": "IC50", "setting": "second compound 0.316 µM", "result": 0.434, "unit": "µM"}, {"measurement": "IC50", "setting": "second compound 1 µM", "result": "< 0.0316", "unit": "µM"}, {"measurement": "IC50", "setting": "second compound 3.16 µM", "result": "< 0.0316", "unit": "µM"}, {"measurement": "IC50", "setting": "second compound 10 µM", "result": "< 0.0316", "unit": "µM"}, {"measurement": "viability, T/C", "setting": "[1]", "result": 106, "unit": "%"}, {"measurement": "viability, T/C", "setting": "[2]", "result": 89.4, "unit": "%"}, {"measurement": "viability, T/C", "setting": "[3]", "result": 68.1, "unit": "%"}, {"measurement": "viability, T/C", "setting": "[4]", "result": 60.8, "unit": "%"}, {"measurement": "viability, T/C", "setting": "[5]", "result": 52.1, "unit": "%"}, {"measurement": "viability, T/C", "setting": "[6]", "result": 45.6, "unit": "%"}, {"measurement": "viability, T/C", "setting": "[7]", "result": 109, "unit": "%"}, {"measurement": "viability, T/C", "setting": "[8]", "result": 92.9, "unit": "%"}, {"measurement": "viability, T/C", "setting": "[9]", "result": 67.6, "unit": "%"}, {"measurement": "viability, T/C", "setting": "[10]", "result": 55.3, "unit": "%"}, {"measurement": "viability, T/C", "setting": "[11]", "result": 42.2, "unit": "%"}, {"measurement": "viability, T/C", "setting": "[12]", "result": 32.9, "unit": "%"}, {"measurement": "viability, T/C", "setting": "[13]", "result": 81.7, "unit": "%"}, {"measurement": "viability, T/C", "setting": "[14]", "result": 66.7, "unit": "%"}, {"measurement": "viability, T/C", "setting": "[15]", "result": 52.2, "unit": "%"}, {"measurement": "viability, T/C", "setting": "[16]", "result": 39.3, "unit": "%"}, {"measurement": "viability, T/C", "setting": "[17]", "result": 36.5, "unit": "%"}, {"measurement": "viability, T/C", "setting": "[18]", "result": 22.3, "unit": "%"}, {"measurement": "viability, T/C", "setting": "[19]", "result": 48.4, "unit": "%"}, {"measurement": "viability, T/C", "setting": "[20]", "result": 29, "unit": "%"}, {"measurement": "viability, T/C", "setting": "[21]", "result": 22.9, "unit": "%"}, {"measurement": "viability, T/C", "setting": "[22]", "result": 16.5, "unit": "%"}, {"measurement": "viability, T/C", "setting": "[23]", "result": 13.4, "unit": "%"}, {"measurement": "viability, T/C", "setting": "[24]", "result": 15.5, "unit": "%"}, {"measurement": "viability, T/C", "setting": "[25]", "result": 20.3, "unit": "%"}, {"measurement": "viability, T/C", "setting": "[26]", "result": 17.5, "unit": "%"}, {"measurement": "viability, T/C", "setting": "[27]", "result": 15.9, "unit": "%"}, {"measurement": "viability, T/C", "setting": "[28]", "result": 11.8, "unit": "%"}, {"measurement": "viability, T/C", "setting": "[29]", "result": 10.9, "unit": "%"}, {"measurement": "viability, T/C", "setting": "[30]", "result": 7.39, "unit": "%"}, {"measurement": "viability, T/C", "setting": "[31]", "result": 17.5, "unit": "%"}, {"measurement": "viability, T/C", "setting": "[32]", "result": 14.5, "unit": "%"}, {"measurement": "viability, T/C", "setting": "[33]", "result": 13.2, "unit": "%"}, {"measurement": "viability, T/C", "setting": "[34]", "result": 10.8, "unit": "%"}, {"measurement": "viability, T/C", "setting": "[35]", "result": 11.1, "unit": "%"}, {"measurement": "viability, T/C", "setting": "[36]", "result": 6.78, "unit": "%"}]}
{"smiles": "C=C(F)C(=O)N1CCN(c2nc(OCC3CCCN3C)nc3c2CCN(c2cccc4cccc(Cl)c24)C3)CC1CC#N", "note": "(centres undefined) + CNC(=O)c1ccc(Nc2nc(OC3CCCC3)c3c(-c4ccc5nc(C)oc5c4)c[nH]c3n2)c(OC)c1", "values": [{"measurement": "IC50", "setting": "second compound 0.0316 µM", "result": 5.78, "unit": "µM"}, {"measurement": "IC50", "setting": "second compound 0.1 µM", "result": 5.43, "unit": "µM"}, {"measurement": "IC50", "setting": "second compound 0.316 µM", "result": 4.99, "unit": "µM"}, {"measurement": "IC50", "setting": "second compound 1 µM", "result": 3.34, "unit": "µM"}, {"measurement": "IC50", "setting": "second compound 3.16 µM", "result": 1.13, "unit": "µM"}, {"measurement": "IC50", "setting": "second compound 10 µM", "result": 0.107, "unit": "µM"}, {"measurement": "viability, T/C", "setting": "[1]", "result": 95.6, "unit": "%"}, {"measurement": "viability, T/C", "setting": "[2]", "result": 101, "unit": "%"}, {"measurement": "viability, T/C", "setting": "[3]", "result": 108, "unit": "%"}, {"measurement": "viability, T/C", "setting": "[4]", "result": 101, "unit": "%"}, {"measurement": "viability, T/C", "setting": "[5]", "result": 119, "unit": "%"}, {"measurement": "viability, T/C", "setting": "[6]", "result": 0.23, "unit": "%"}, {"measurement": "viability, T/C", "setting": "[7]", "result": 108, "unit": "%"}, {"measurement": "viability, T/C", "setting": "[8]", "result": 78.5, "unit": "%"}, {"measurement": "viability, T/C", "setting": "[9]", "result": 83.4, "unit": "%"}, {"measurement": "viability, T/C", "setting": "[10]", "result": 105, "unit": "%"}, {"measurement": "viability, T/C", "setting": "[11]", "result": 94.4, "unit": "%"}, {"measurement": "viability, T/C", "setting": "[12]", "result": 0.19, "unit": "%"}, {"measurement": "viability, T/C", "setting": "[13]", "result": 82.2, "unit": "%"}, {"measurement": "viability, T/C", "setting": "[14]", "result": 76.3, "unit": "%"}, {"measurement": "viability, T/C", "setting": "[15]", "result": 69.7, "unit": "%"}, {"measurement": "viability, T/C", "setting": "[16]", "result": 88.6, "unit": "%"}, {"measurement": "viability, T/C", "setting": "[17]", "result": 95, "unit": "%"}, {"measurement": "viability, T/C", "setting": "[18]", "result": 0.63, "unit": "%"}, {"measurement": "viability, T/C", "setting": "[19]", "result": 73.3, "unit": "%"}, {"measurement": "viability, T/C", "setting": "[20]", "result": 64.4, "unit": "%"}, {"measurement": "viability, T/C", "setting": "[21]", "result": 65.5, "unit": "%"}, {"measurement": "viability, T/C", "setting": "[22]", "result": 65, "unit": "%"}, {"measurement": "viability, T/C", "setting": "[23]", "result": 52.7, "unit": "%"}, {"measurement": "viability, T/C", "setting": "[24]", "result": 0.17, "unit": "%"}, {"measurement": "viability, T/C", "setting": "[25]", "result": 63.3, "unit": "%"}, {"measurement": "viability, T/C", "setting": "[26]", "result": 51.1, "unit": "%"}, {"measurement": "viability, T/C", "setting": "[27]", "result": 50.8, "unit": "%"}, {"measurement": "viability, T/C", "setting": "[28]", "result": 53.6, "unit": "%"}, {"measurement": "viability, T/C", "setting": "[29]", "result": 19.6, "unit": "%"}, {"measurement": "viability, T/C", "setting": "[30]", "result": 0.18, "unit": "%"}, {"measurement": "viability, T/C", "setting": "[31]", "result": 54.4, "unit": "%"}, {"measurement": "viability, T/C", "setting": "[32]", "result": 45.2, "unit": "%"}, {"measurement": "viability, T/C", "setting": "[33]", "result": 50, "unit": "%"}, {"measurement": "viability, T/C", "setting": "[34]", "result": 43.9, "unit": "%"}, {"measurement": "viability, T/C", "setting": "[35]", "result": 16, "unit": "%"}, {"measurement": "viability, T/C", "setting": "[36]", "result": 0.24, "unit": "%"}]}
